How the values were obtained:
[1] = system: Soybean plants (Delta Pine 415); assay: Soybeans test 3b: root nodules, greenhouse; assay type: in vivo, Glycine max; conditions: untreated 47
Method: (§1) In these tests various types of non-sterile soils were used. The cultivation of the plants was carried out under greenhouse or climatic chamber conditions. The active compounds according to the invention were applied uniformly distributed over the soil surface in an aqueous preparation after the emergence of the respective test plants. The supply of water for the plants was carrried out using the same technique, always paying attention to uniform moistness of the soil. In the case of the cultivation of legumes, defined amounts of species-specific Rhizobia were admixed to the soil. In some cases inoculation was also carried out by seed treatment.
a) Soybean plants (Delta Pine 415) were cultivated under greenhouse conditions in low N Limburgerhof soil in plastic pots (500 ml) and watered from above as required. A few days after emergence the plants were thinned out to 5 plants per pot.
In 8 pots in each case per test member an aqueous active compound solution of 2.3.1.3 was applied by watering. 16 pots remained untreated in each case.
b) Test procedure as in 3 a) active compound 2.3.1.3

[2] = system: Soybeans of the variety Delta Pine 147; assay: Field test: seed yield in soybeans; assay type: in vivo, Glycine max; conditions: untreated = 100 (29.9 dt/ha)
Method: The tests a) and b) were carried out under conditions like those in practice in 1993 on the field test site of BASF Corporation in Holly Springs, N.C., USA. This location is distinguished by a medium-heavy soil (sandy loam).
Soybeans of the variety Delta Pine 147 were used. Treatment was carried out to the following stages of development: 11 (1st trefoil formed), 13 (3rd trefoil formed) and 14 (5th trefoil formed). For treatment, the soil between the rows was sprayed with an aqueous preparation of the active compound 2.3.1.3. Immediately after the application, the active compound was washed into the soil by spray irrigation with 20 mm of water. The spray irrigation was also used to wash off active compound which had possibly reached the leaves.
Harvesting of the plants at full maturity gave the following results: […]

[3] = system: Peas (Kleine Rheinländerin); assay: Peas test 2a: biomass, root nodules, nitrogen assimilation, greenhouse; assay type: in vivo, Pisum sativum; conditions: 3 weeks after treatment; for Dry matter (shoot + root): control 3.3; for Nodules: control 13; for Total N (total nitrogen in shoot + root): control 78.5
Method: as §1
a) Peas (Kleine Rheinländerin) were cultivated under greenhouse conditions in low N Limburgerhof soil in plastic pots (500 ml) and watered from above as required (a constant weight was maintained here). A few days after emergence the plants were thinned out to 5 plants per pot.
In four pots in each case aqueous active compound solutions of one concentration of 2.3.1.3 were applied by watering. Four pots remained untreated.
3 weeks after treatment the following results were obtained: […]

Soybeans (A 5403) = assay: Soybeans test 3d: root nodules, root and shoot biomass, greenhouse; assay type: in vivo, Glycine max; conditions: 30 days after treatment; for Nodules: untreated 38.3; for Dry matter root: untreated 1955; for Dry matter shoot: untreated 3616
Method: as §1, with “treatment. d) Soybeans (A 5403) were cultivated under greenhouse conditions in low N, sandy loam soil in plastic pots (750 ml) and watered from above as required. A few days after emergence the plants were thinned out to 3 plants per pot. In 5 pots in each case 25 ml each of an aqueous preparation of one concentration of 2.3.1.3 were applied by watering. 5 pots remained untreated. 30 days after treatment the following results were obtained: […]” for “treatment.”

Chick-pea plants (UC-27) = assay: Chick-peas: root nodules, root and shoot biomass, greenhouse; assay type: in vivo, Cicer arietinum; conditions: 25 days after treatment; for Nodules: untreated 11.3; for Dry matter root: untreated 1100; for Dry matter shoot: untreated 2110
Method: as §1
Chick-pea plants (UC-27) were cultivated under greenhouse conditions in low N, sandy loam soil in plastic pots (750 ml) and watered from above as required. A few days after emergence the plants were thinned out to 3 plants per pot.
In 6 pots in each case 25 ml each of an aqueous preparation of one concentration of 2.3.1.3 were applied by watering. 6 pots remained untreated.
25 days after treatment the following results were obtained: […]

Peas (Field Peas VNS) = assay: Peas test 2c: root nodules, root and shoot biomass, greenhouse; assay type: in vivo, Pisum sativum; conditions: 30 days after treatment; for Nodules: untreated 6.1; for Dry matter root: untreated 275; for Dry matter shoot: untreated 459
Method: as §1, with “treatment. c) Peas (Field Peas VNS) were cultivated under greenhouse conditions in low N, sandy loam soil in plastic pots (750 ml) and watered from above as required. A few days after emergence the plants were thinned out to 7 plants per pot. In 5 pots in each case 25 ml each of an aqueous preparation of one concentration of 2.3.1.3 were applied by watering. 5 pots remained untreated. 30 days after treatment the following results were obtained: […]” for “treatment.”

COC(=O)COC(=O)CON=C(C)C [active compound 2.3.1.3]
Nodules ([1]; 0.003 mg of a.s./pot; procedure as in 3 a)): 72 number/pot | Nodules ([1]; 0.030 mg of a.s./pot; procedure as in 3 a)): 83 number/pot | Nodules ([1]; 0.300 mg of a.s./pot; procedure as in 3 a)): 69 number/pot | Bean yield ([2]; 10 g/ha of a.s., growth stage 11 during treatment): 104% | Bean yield ([2]; 10 g/ha of a.s., growth stage 13 during treatment): 116% | Bean yield ([2]; 10 g/ha of a.s., growth stage 14 during treatment): 110% | Bean yield ([2]; 100 g/ha of a.s., growth stage 11 during treatment): 122% | Bean yield ([2]; 100 g/ha of a.s., growth stage 13 during treatment): 117% | Bean yield ([2]; 100 g/ha of a.s., growth stage 14 during treatment): 112% | Bean yield ([2]; 1000 g/ha of a.s., growth stage 11 during treatment): 110% | Bean yield ([2]; 1000 g/ha of a.s., growth stage 13 during treatment): 122% | Bean yield ([2]; 1000 g/ha of a.s., growth stage 14 during treatment): 108% | Dry matter (shoot + root) ([3]; 0.03 mg/pot): 3.2 g/pot | Nodules ([3]; 0.03 mg/pot): 28 number/pot | Total N (total nitrogen in shoot + root) ([3]; 0.03 mg/pot): 75.0 mg/pot | Dry matter (shoot + root) ([3]; 0.30 mg/pot): 4.0 g/pot | Nodules ([3]; 0.30 mg/pot): 127 number/pot | Total N (total nitrogen in shoot + root) ([3]; 0.30 mg/pot): 120.5 mg/pot | Dry matter (shoot + root) ([3]; 3.00 mg/pot): 3.1 g/pot | Nodules ([3]; 3.00 mg/pot): 99 number/pot | Total N (total nitrogen in shoot + root) ([3]; 3.00 mg/pot): 109.5 mg/pot | Nodules (Soybeans (A 5403); 3 g of a.s./ha): 47.6 number/plant | Dry matter root (Soybeans (A 5403); 3 g of a.s./ha): 2806 mg/plant | Dry matter shoot (Soybeans (A 5403); 3 g of a.s./ha): 4020 mg/plant | Nodules (Soybeans (A 5403); 300 g of a.s./ha): 54.9 number/plant | Dry matter root (Soybeans (A 5403); 300 g of a.s./ha): 1326 mg/plant | Dry matter shoot (Soybeans (A 5403); 300 g of a.s./ha): 4117 mg/plant | Nodules (Chick-pea plants (UC-27); 30 g of a.s./ha): 31.4 number/plant | Dry matter root (Chick-pea plants (UC-27); 30 g of a.s./ha): 1280 mg/plant | Dry matter shoot (Chick-pea plants (UC-27); 30 g of a.s./ha): 2690 mg/plant | Nodules (Chick-pea plants (UC-27); 300 g of a.s./ha): 44.0 number/plant | Dry matter root (Chick-pea plants (UC-27); 300 g of a.s./ha): 1520 mg/plant | Dry matter shoot (Chick-pea plants (UC-27); 300 g of a.s./ha): 3350 mg/plant | Nodules (Chick-pea plants (UC-27); 3000 g of a.s./ha): 6.2 number/plant | Dry matter root (Chick-pea plants (UC-27); 3000 g of a.s./ha): 1150 mg/plant | Dry matter shoot (Chick-pea plants (UC-27); 3000 g of a.s./ha): 4110 mg/plant | Nodules (Peas (Field Peas VNS); 3 g of a.s./ha): 41.5 number/plant | Dry matter root (Peas (Field Peas VNS); 3 g of a.s./ha): 849 mg/plant | Dry matter shoot (Peas (Field Peas VNS); 3 g of a.s./ha): 1064 mg/plant | Nodules (Peas (Field Peas VNS); 30 g of a.s./ha): 39.4 number/plant | Dry matter root (Peas (Field Peas VNS); 30 g of a.s./ha): 704 mg/plant | Dry matter shoot (Peas (Field Peas VNS); 30 g of a.s./ha): 795 mg/plant | Nodules (Peas (Field Peas VNS); 300 g of a.s./ha): 56.1 number/plant | Dry matter root (Peas (Field Peas VNS); 300 g of a.s./ha): 945 mg/plant | Dry matter shoot (Peas (Field Peas VNS); 300 g of a.s./ha): 1209 mg/plant
